From patent US20250195521A1 (Revolution Medicines, Inc., priority 2020, published 2025) come the findings set out here.

Experiment [1] has as its target KRAS G13D (Homo sapiens (Human), UniProt P01116+P62937, G13D). The experiment in a line: Ras-Raf disruption/FRET/MOA assay (BRAF RBD, Cyclophilin A). Format: biochemical. Particulars: read-out: KRAS G13D FRET data IC50. In outline:
(§1)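 TR-FRET read after 1.5 h with 10 nM anti-His Eu-W1024 and 50 nM anti-GST APC, following 3 h at 25 °C of GMPPNP-loaded His6-Ras (12.5 nM), GST-BRAF RBD (50 nM) and Cyclophilin A (25 μM) with compound from 30 μM final, 10 points, 3-fold. IC50 reported; pH 7.3 HEPES, 100 mM NaCl.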

For experiment [2], the target named is KRAS G12V (Homo sapiens (Human), UniProt P01116+P62937, G12V). The description is as above. Format: biochemical. Particulars: read-out: KRAS G12V FRET IC50. In outline: as §1
Sequence of KRAS G12V (P01116 other isoform, or with tags, fused parts or gaps G12V): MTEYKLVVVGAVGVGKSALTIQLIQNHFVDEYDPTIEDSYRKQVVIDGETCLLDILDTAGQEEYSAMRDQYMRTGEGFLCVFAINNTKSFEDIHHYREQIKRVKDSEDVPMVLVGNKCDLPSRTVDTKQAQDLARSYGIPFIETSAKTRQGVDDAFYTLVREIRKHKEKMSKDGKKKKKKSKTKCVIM
Sequence of KRAS G12V (P62937 whole entry): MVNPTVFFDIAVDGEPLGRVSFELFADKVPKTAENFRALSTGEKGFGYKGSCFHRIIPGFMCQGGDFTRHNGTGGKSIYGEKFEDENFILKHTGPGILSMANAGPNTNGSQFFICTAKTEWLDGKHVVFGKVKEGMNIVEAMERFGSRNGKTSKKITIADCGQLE
Experiment [3] has as its target KRAS G13C (Homo sapiens (Human), UniProt P01116+P62937, G13C). The description is as above. Format: biochemical. Conditions: read-out: KRAS G13C FRET IC50. In outline:
as §1

Experiment [4] addresses KRAS G12C (Homo sapiens (Human), UniProt P01116+P62937, G12C). The experiment is described as above. Format: biochemical. Conditions: read-out: KRAS G12C FRET IC50. In outline:
as §1

In experiment [5] the target is KRAS WT (Homo sapiens (Human), UniProt P01116+P62937). The experiment is described as above. Particulars: read-out: KRAS WT FRET data IC50. Format: biochemical. In outline: as §1
Sequence of KRAS WT (P01116 other isoform, or with tags, fused parts or gaps): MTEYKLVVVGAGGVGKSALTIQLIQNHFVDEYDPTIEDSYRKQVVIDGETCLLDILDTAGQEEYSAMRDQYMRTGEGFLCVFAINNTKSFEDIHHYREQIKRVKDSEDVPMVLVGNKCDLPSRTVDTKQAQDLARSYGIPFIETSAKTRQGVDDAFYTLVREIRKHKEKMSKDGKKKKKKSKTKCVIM
Sequence of KRAS WT (P62937 whole entry): as the sequence (P62937 whole entry) above
For experiment [6], the target named is KRAS G12S (Homo sapiens (Human), UniProt P01116+P62937, G12S). Described as above. Format: biochemical. Particulars: read-out: KRAS G12S FRET IC50. An outline of the steps: as §1
Sequence of KRAS G12S (P01116 other isoform, or with tags, fused parts or gaps G12S): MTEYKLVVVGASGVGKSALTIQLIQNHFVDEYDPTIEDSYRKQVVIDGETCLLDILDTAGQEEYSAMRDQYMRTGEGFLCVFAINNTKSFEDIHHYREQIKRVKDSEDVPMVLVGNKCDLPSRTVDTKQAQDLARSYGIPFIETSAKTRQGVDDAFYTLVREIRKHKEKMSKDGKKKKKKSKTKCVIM
Sequence of KRAS G12S (P62937 whole entry): as the sequence (P62937 whole entry) above
Experiment [7] has as its target NRAS G12C (Homo sapiens (Human), UniProt P01111+P62937, G12C). Described as above. Format: biochemical. Particulars: read-out: NRAS G12C FRET data IC50. An outline of the steps: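 Ras-GMPPNP (12.5 nM), BRAF RBD (50 nM) and 25 μM Cyclophilin A were incubated with compound for 3 h at 25° C, then detected 1.5 h with anti-His Eu and anti-GST APC; IC50 values follow from the reduced TR-FRET ratio.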

The target of experiment [8] is KRAS G12D (Homo sapiens (Human), UniProt P01116+P62937, G12D). The experiment is described as above. Format: biochemical. Conditions: read-out: KRAS G12D FRET IC50. An outline of the steps: as §1
Sequence of KRAS G12D (P01116 other isoform, or with tags, fused parts or gaps G12D): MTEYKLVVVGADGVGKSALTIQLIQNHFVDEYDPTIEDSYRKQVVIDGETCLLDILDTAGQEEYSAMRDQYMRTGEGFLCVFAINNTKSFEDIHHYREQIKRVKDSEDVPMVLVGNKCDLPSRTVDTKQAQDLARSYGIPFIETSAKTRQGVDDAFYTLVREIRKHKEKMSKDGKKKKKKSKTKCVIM
Sequence of KRAS G12D (P62937 whole entry): as the sequence (P62937 whole entry) above
The test system of experiment [9] is NCI-H358 cells (K-Ras G12C). The experiment in a line: CellTiter-Glo cell viability, NCI-H358. Format: cell-based, human. Conditions: Homo sapiens, NCI-H358, 120 h, K-Ras G12C, 5-day treatment; read-out: H358 Cell Viability IC50. On the procedure:
Note—The following protocol describes a procedure for monitoring cell viability of K-Ras mutant cancer cell lines in response to a compound of the invention. Other RAS isoforms may be employed, though the number of cells to be seeded will vary based on cell line used.
Test compounds (132.5 nl) were directly dispensed into the assay plates containing cells. […] On day 5, assay plates and their contents were equilibrated to room temperature for approximately 30 minutes. […] Luminescence was measured using the PerkinElmer Enspire. Data were normalized by the following: (Sample signal/Avg. DMSO)*100. The data were fit using a four-parameter logistic fit.

Experiment [10] relates to K-Ras G12C (NCI-H358 cells). The experiment can be described thus: Potency assay: pERK in NCI-H358 cells. Particulars: Homo sapiens; NCI-H358 cells, 4 hours; read-out: pERK EC50 (H358 KRAS G12C). Format: cell-based, human. An outline of the steps: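 Cells plated the day before were exposed for 4 h at 37° C, 5% CO2 to a 10-point, 3-fold DMSO dilution series (10 mM top stock), in duplicate. Phospho-ERK was read by AlphaLISA SureFire Ultra or by In-Cell Western with DRAQ5 DNA stain, and IC50 came from a 4-parameter sigmoidal fit.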

Sequence of KRAS G13D (P01116 other isoform, or with tags, fused parts or gaps G13D): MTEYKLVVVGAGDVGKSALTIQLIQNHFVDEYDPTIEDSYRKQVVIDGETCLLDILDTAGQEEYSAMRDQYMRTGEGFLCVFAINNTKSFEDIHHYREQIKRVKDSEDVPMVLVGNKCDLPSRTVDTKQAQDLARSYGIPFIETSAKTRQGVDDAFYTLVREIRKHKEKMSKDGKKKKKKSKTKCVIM
Sequence of KRAS G13D (P62937 whole entry): as the sequence (P62937 whole entry) above
Sequence of KRAS G13C (P01116 other isoform, or with tags, fused parts or gaps G13C): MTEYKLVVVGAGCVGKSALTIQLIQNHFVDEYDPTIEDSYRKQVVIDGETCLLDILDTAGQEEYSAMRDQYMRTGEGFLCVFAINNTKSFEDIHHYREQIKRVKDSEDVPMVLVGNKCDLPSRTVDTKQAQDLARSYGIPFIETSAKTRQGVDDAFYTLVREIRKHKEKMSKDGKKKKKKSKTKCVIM
Sequence of KRAS G13C (P62937 whole entry): as the sequence (P62937 whole entry) above
Sequence of NRAS G12C (P01111 whole entry G12C): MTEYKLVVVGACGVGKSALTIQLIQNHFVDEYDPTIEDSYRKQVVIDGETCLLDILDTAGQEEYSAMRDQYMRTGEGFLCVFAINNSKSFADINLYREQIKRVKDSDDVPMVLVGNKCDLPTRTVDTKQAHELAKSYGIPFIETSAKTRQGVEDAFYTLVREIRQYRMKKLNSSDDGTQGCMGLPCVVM
Sequence of NRAS G12C (P62937 whole entry): as the sequence (P62937 whole entry) above
Sequence of KRAS G12C (P01116-2 other isoform, or with tags, fused parts or gaps G12C): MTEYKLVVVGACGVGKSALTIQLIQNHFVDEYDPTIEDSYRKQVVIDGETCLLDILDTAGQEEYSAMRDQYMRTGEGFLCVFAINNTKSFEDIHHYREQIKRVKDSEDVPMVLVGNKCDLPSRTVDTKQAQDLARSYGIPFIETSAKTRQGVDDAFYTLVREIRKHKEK
Sequence of KRAS G12C (P62937 whole entry): as the sequence (P62937 whole entry) above

For the compound `CCn1c(-c2cnccc2COC)c2c3cc(ccc31)-c1cc(O)cc(c1)C[C@H](NC(=O)[C@H](C(C)C)N(C)C(=O)N1CCN(C)CC1)C(=O)N1CCC[C@H](N1)C(=O)OCC(C)(C)C2` [Compound A46], the IC50 was in the range of 100 to 1000 nM in experiment [1]; 1000 to 10000 nM in experiment [2]; 100 to 1000 nM in [3]; 100 to 1000 nM in [4]; 100 to 1000 nM in [5]; 100 to 1000 nM in experiment [6]. Moreover, the IC50 was in the range of 100 to 1000 nM in experiment [7], 1000 to 10000 nM in experiment [8] and 1000 to 10000 nM in experiment [9].
For the compound `CCn1c(-c2cnccc2COC)c2c3cc(ccc31)-c1cc(O)cc(c1)C[C@H](NC(=O)[C@H](C(C)C)N(C)C(=O)[C@H]1CCN(C3COC3)C1)C(=O)N1CCC[C@H](N1)C(=O)OCC(C)(C)C2` [Compound A51], the IC50 was 100 to 1000 nM in experiment [1]; 1000 to 10000 nM in experiment [2]; 100 to 1000 nM in experiment [3]; 100 to 1000 nM in [4]; 100 to 1000 nM in experiment [5]; 100 to 1000 nM in experiment [6]. The IC50 in [7], in experiment [8] and in experiment [9] was 1000 to 10000 nM each time. In experiment [10], the EC50 is < 5000 nM.
On to `CCn1c(-c2cnccc2COC)c2c3cc(ccc31)-c1cc(O)cc(c1)C[C@H](NC(=O)[C@H](C(C)C)N(C)c1ncco1)C(=O)N1CCC[C@H](N1)C(=O)OCC(C)(C)C2` [Compound A52], for which the IC50 lay within 1000 to 10000 nM in [1]; 1000 to 10000 nM in experiment [2]; 1000 to 10000 nM in [3]; 100 to 1000 nM in experiment [4]; 1000 to 10000 nM in experiment [5]; 1000 to 10000 nM in experiment [6]. The figures for the IC50 in [7], in experiment [8] and in experiment [9] were 1000 to 10000 nM, > 10000 nM and 1000 to 10000 nM, respectively.
For `CCn1c(-c2cnccc2COC)c2c3cc(ccc31)-c1cc(O)cc(c1)C[C@H](NC(=O)[C@@H](NC(=O)c1ncco1)C(C)C)C(=O)N1CCC[C@H](N1)C(=O)OCC(C)(C)C2` [Compound A56], the IC50 in [1], in experiment [2], in [3], in experiment [4], in experiment [5] and in experiment [6] was 1000 to 10000 nM in each case. Also, the figures for the IC50 in [7], in experiment [8] and in experiment [9] were 1000 to 10000 nM, > 10000 nM and > 10000 nM, respectively. Also, in experiment [10], the EC50 is < 5000 nM.
On to `CCn1c(-c2cnccc2COC)c2c3cc(ccc31)-c1cc(O)cc(c1)C[C@H](NC(=O)[C@@H](OC(=O)N1CCCC1)C(C)C)C(=O)N1CCC[C@H](N1)C(=O)OCC(C)(C)C2` [Compound A59], for which the IC50 in experiment [1] is 1000 to 10000 nM; in experiment [2] it was 1000 to 10000 nM; in experiment [3] it was > 10000 nM; in experiment [4], 1000 to 10000 nM; in experiment [5] it was 1000 to 10000 nM; in [6], 1000 to 10000 nM. Besides, the values for the IC50 in experiment [7], in [8] and in [9] were 1000 to 10000 nM, > 10000 nM and 1000 to 10000 nM, respectively.
As for `CCn1c(-c2cnccc2COC)c2c3cc(ccc31)-c1cc(O)cc(c1)C[C@H](NC(=O)[C@H](C(C)C)N(C)C(=O)CN/C(N)=N/C#N)C(=O)N1CCC[C@H](N1)C(=O)OCC(C)(C)C2` [Compound A62], the IC50 in experiment [1] is 100 to 1000 nM; in experiment [2] it was 100 to 1000 nM; in experiment [3], 100 to 1000 nM; in [4] it was 10 to 100 nM; in experiment [5], 100 to 1000 nM; in [6] it was 100 to 1000 nM. Also, the values for the IC50 in experiment [7], in [8] and in experiment [9] were 100 to 1000 nM, 100 to 1000 nM and > 10000 nM, respectively.
